Reference: patent US6022901A, “Administration of resveratrol to prevent or treat restenosis following coronary intervention” (priority 1998, dated 2000)

Tested on: common iliac artery of high cholesteric rabbits
Test: Restenosis/thrombus model: balloon injury of common iliac artery in high cholesteric rabbits, local administration, angioscopy
Type: in vivo, rabbit
Conditions: after one month; trans-resveratrol + heparin (1:100) compared with heparin only, P<0.05
Protocol: The procedure of U.S. Pat. No. 5,595,974 to Tomaru may be used to evaluate the utility of trans-resveratrol in preventing restenosis in high cholestereric rabbits, as follows:
An injectable trans-resveratrol solution is prepared containing the following components: 10 mg trans-resveratrol; 3 mg chlorobutanol (preservative); 0.1 mg gelatin hydrolyzate (stabilizer); 9 mg sodium chloride (isotonic agent); and distilled water containing 2% dimethyl sulfoxide ("DMSO") for injection (to 1 mL).
Common iliac arteries of high cholesteric rabbits to which a diet containing 2% of cholesterol is loaded for a month are used as a model for restenosis, wherein the model consists of (1) a heparin group with seven male rabbits and (2) trans-resveratrol solution combined with th seven male rabbits, weighing between 2.5 kg and 3 kg, respectively. […]
Post-operatively, the percent luminal obstruction (%) of both the control side and the drug administered side are compared by continuing the load of high cholesterol for one month. That is, effects for preventing stenosis by local administration of trans-resveratrol is evaluated by angioscopic visualization after one month from vascular injury to compare the percent luminal obstruction (%) caused by intima pachymenia.
The percent luminal obstruction (%) is calculated by the following equation: […]

Row | SMILES | percent luminal obstruction (%)
1 | Oc1ccc(/C=C/c2cc(O)cc(O)c2)cc1 [trans-resveratrol] | remarkably reduced percent luminal obstruction (%)

Tested on: low-density lipoproteins
Test: not given
Conditions: cited from earlier work

Row | SMILES | protection of low-density lipoproteins against oxidation
2 | Oc1cc(O)c2c(c1)OC(c1ccc(O)c(O)c1)C(O)C2 (stereo not drawn) [catechin, reference compound] | protect low-density lipoproteins against oxidation
3 | OC[C@H]1O[C@@H](Oc2cc(O)cc(/C=C\c3ccc(O)cc3)c2)[C@H](O)[C@@H](O)[C@@H]1O [cis-resveratrol glucoside] | protect low-density lipoproteins against oxidation
4 | Oc1ccc(/C=C\c2cc(O)cc(O)c2)cc1 [cis-resveratrol] | protect low-density lipoproteins against oxidation
5 | Oc1cc(O)c2c(c1)O[C@H](c1ccc(O)c(O)c1)[C@H](O)C2 [epicatechin, reference compound] | protect low-density lipoproteins against oxidation
6 | O=c1c(O)c(-c2ccc(O)c(O)c2)oc2cc(O)cc(O)c12 [quercetin, reference compound] | protect low-density lipoproteins against oxidation
7 | C[C@@H]1O[C@@H](OC[C@H]2O[C@@H](Oc3c(-c4ccc(O)c(O)c4)oc4cc(O)cc(O)c4c3=O)[C@H](O)[C@@H](O)[C@@H]2O)[C@H](O)[C@H](O)[C@H]1O [rutin, reference compound] | protect low-density lipoproteins against oxidation
8 | OC[C@H]1O[C@@H](Oc2cc(O)cc(/C=C/c3ccc(O)cc3)c2)[C@H](O)[C@@H](O)[C@@H]1O [trans-resveratrol glucoside] | protect low-density lipoproteins against oxidation
9 | Oc1ccc(/C=C/c2cc(O)cc(O)c2)cc1 [trans-resveratrol] | protect low-density lipoproteins against oxidation
